Test results as given in ChEMBL document CHEMBL5120979, “Oral Nonpeptidic, Noncovalent Triazine Coronavirus Main Protease Inhibitors for Treating COVID-19” (ACS Med Chem Lett, 2022).

Key:
SARS-CoV-2 = experiment: Antiviral activity against SARS-CoV-2 infected in African green monkey VeroE6 cells expressing TMPRSS2; type: functional, organism-based; conditions: Severe acute respiratory syndrome coronavirus 2, Vero C1008
[1] = target: Replicase polyprotein 1ab (Severe acute respiratory syndrome coronavirus 2, UniProt P0DTD1); experiment: Inhibition of recombinant SARS-CoV-2 main protease usingDABCYLKTSAVLQSGFRKME(EDANS)-NH2 fluorogenic peptide substrate by FRET assay

SMILES	EC50 (SARS-CoV-2)	IC50 [1]
Cn1cnc(Cn2c(=O)nc(Nc3cc4cn(C)nc4cc3Cl)n(Cc3cc(F)c(F)c(F)c3)c2=O)c1	1030 nM	6 nM
Cn1cnc(Cn2c(=O)nc(NC3=CC4CCOC4C=C3Cl)n(Cc3cc(F)c(F)c(F)c3)c2=O)n1 (stereo not given)	385 nM	15 nM
Cc1cncc(-n2c(=O)nc(Nc3cc4cn(C)nc4cc3Cl)n(Cc3cc(F)c(F)c(F)c3)c2=O)c1	177 nM	
Cn1cc2cc(Nc3nc(=O)n(-c4cncc(C(F)(F)F)c4)c(=O)n3Cc3cc(F)c(F)c(F)c3)c(Cl)cc2n1	6600 nM	
Cn1cc2cc(Nc3nc(=O)n(Cc4cc(Cl)ccn4)c(=O)n3Cc3cc(F)c(F)cc3F)c(Cl)cc2n1	1520 nM	
Cn1cnc(Cn2c(=O)nc(Nc3cc4cn(C)nc4cc3Cl)n(Cc3cc(F)c(F)c(F)c3F)c2=O)n1	395 nM	10 nM
CCn1cc2cc(Nc3nc(=O)n(Cc4ncn(C)n4)c(=O)n3Cc3cc(F)c(F)cc3F)c(Cl)cc2n1	533 nM	
Cc1cncc(-n2c(=O)nc(Nc3cc4cn(C)nc4cc3Cl)n(Cc3cc(C#N)c(F)cc3C)c2=O)c1	35 nM	2 nM
Cc1cncc(-n2c(=O)nc(Nc3cc4cn(C)nc4cc3Cl)n(Cc3cc(F)c(F)cc3F)c2=O)c1	131 nM	
Cn1cc2cc(Nc3nc(=O)n(Cc4cc5ccsc5[nH]c4=O)c(=O)n3Cc3cc(F)c(F)c(F)c3)c(Cl)cc2n1	321 nM	4 nM
Cn1cc2cc(Nc3nc(=O)n(-c4cncc5c4COC5)c(=O)n3Cc3cc(Cl)c(F)cc3F)c(Cl)cc2n1	680 nM	
Cn1cnc(Cn2c(=O)nc(Nc3cc4cn(CC(F)F)nc4cc3Cl)n(Cc3cc(F)c(F)cc3F)c2=O)n1	342 nM	9 nM
CCNC(=O)Cn1c(=O)nc(Nc2cc3cn(C)nc3cc2Cl)n(Cc2cc(F)c(F)c(F)c2)c1=O	11500 nM	
Cn1cnc(Cn2c(=O)nc(Nc3cc4cn(C)nc4cc3Cl)n(Cc3cccc4ccccc34)c2=O)n1	22500 nM	
Cn1cnc(Cn2c(=O)nc(Nc3cc4cn(C)nc4cc3Cl)n(Cc3cc(Cl)c(F)c(Cl)c3)c2=O)n1	750 nM	5 nM
Cn1cnc(Cn2c(=O)nc(Nc3cc4cn(C)nc4cc3Cl)n(Cc3cc(F)c(F)c(F)c3)c2=O)n1	450 nM	
Cc1cnc(Cn2c(=O)nc(Nc3cc4cn(C)nc4cc3Cl)n(Cc3cc(F)c(F)cc3F)c2=O)nc1	5850 nM	
Cn1cnc(Cn2c(=O)nc(Nc3cc4c(F)n(C)nc4cc3Cl)n(Cc3cc(F)c(F)cc3F)c2=O)n1	750 nM	
